Structures are written as SMILES. ≈ marks a conversion by molar mass, not a printed value. Calls of active or inactive are those of the source. The calls are words filed in the database; no cut-off is given here.

In assay [1] the test system is Escherichia coli. Kind of assay: Antibacterial activity against Escherichia coli 1411 after 18 hrs by broth microdilution method. In kind it is functional, organism-based.
The subject of another assay is Staphylococcus aureus. Kind of assay: Antibacterial activity against Staphylococcus aureus 8325-4 after 18 hrs by broth microdilution method. It counts as functional.
Assay [2] relates to Escherichia coli. Kind of assay: Antibacterial activity against AcrAB deficient Escherichia coli SM1411 after 18 hrs by broth microdilution method. It counts as functional, organism-based.
Assay [3] can be described thus: Inhibition of Escherichia coli MurD assessed as blockade of addition of D-[14C]Glu to UDP-MurNAc-L-Ala.
Assay [4] relates to Escherichia coli. Description: Inhibition of Escherichia coli MurD assessed as residual activity at 250 uM by malachite green assay.
Assay [5] has as its system Escherichia coli. Description: Inhibition of Escherichia coli MurF assessed as residual activity at 250 uM by malachite green assay.
Assay [6] can be described thus: Inhibition of Escherichia coli MurF.

With `O=C(O)c1cc2c(cc1S(=O)(=O)O)C1C(C3C2C2(Cl)C(Cl)=C(Cl)C3(Cl)C2(Cl)Cl)C2(Cl)C(Cl)=C(Cl)C1(Cl)C2(Cl)Cl` (stereo unspecified), the outcome with Escherichia coli [1], in the assay with Staphylococcus aureus and with Escherichia coli [2] was inactive. Also, in assay [3], the IC50 stood at 34 µM. Also, the Activity in the assay on Escherichia coli [4] is less than 50%.

Consider `Oc1ccccc1C(Sc1nc2ccccc2s1)Sc1nc2ccccc2s1`, for which the outcome in the assay with Escherichia coli [1], with Staphylococcus aureus and with Escherichia coli [2] was inactive. For the same compound, in the assay on Escherichia coli [5], the Activity is less than 50%.

Turning to `Nc1c(S(=O)(=O)O)cc(Nc2cccc(S(N)(=O)=O)c2)c2c1C(=O)c1ccccc1C2=O`, the outcome with Escherichia coli [1], in the assay on Staphylococcus aureus and with Escherichia coli [2] was inactive. Also, the Activity in the assay with Escherichia coli [5] is less than 50%.

Regarding `Sc1nnc(SCc2ccccc2Cl)c2nc[nH]c12`, the outcome in the assay with Escherichia coli [1], in the assay with Staphylococcus aureus and with Escherichia coli [2] was inactive. The Activity in the assay with Escherichia coli [5] is less than 50%.

As for `FC(F)(F)c1nc2ccc(SSc3ccc4nc(C(F)(F)F)[nH]c4c3)cc2[nH]1`, the result with Escherichia coli [1], in the assay on Staphylococcus aureus and with Escherichia coli [2] was inactive. Further, the Activity with Escherichia coli [5] is less than 50%.

With `CSc1ccc2c(c1)c(CCN)c(C)n2Cc1ccccc1Cl`, the outcome in the assay on Escherichia coli [1], in the assay with Staphylococcus aureus and in the assay on Escherichia coli [2] was inactive. The Activity in the assay on Escherichia coli [5] is less than 50%.

As for `O=C(O)C1C(C(=O)O)C2(Cl)C(Cl)=C(Cl)C1(Cl)C2(Cl)Cl` (stereo unspecified), the result with Escherichia coli [1], in the assay on Staphylococcus aureus and with Escherichia coli [2] was inactive. Besides, the Activity in the assay with Escherichia coli [4] is less than 50%.

On to `O=C(O)/C=C/c1c2ccc(=O)c(O)c-2oc2c(O)c(O)ccc12`, for which the outcome with Escherichia coli [1], with Staphylococcus aureus and with Escherichia coli [2] was inactive. For the same compound, the IC50 in assay [3] is 47 µM. Further, the Activity with Escherichia coli [4] was less than 50%.

As to `CC1C2C=CC1C(c1c3ccc(=O)c(O)c-3oc3c(O)c(O)ccc13)C2C(=O)O` (stereo unspecified), the result with Escherichia coli [1], with Staphylococcus aureus and in the assay with Escherichia coli [2] was inactive. The IC50 in assay [3] is 43 µM.

As to `O=C(O)c1c(Cl)c(Cl)c(Cl)c(Cl)c1C(=O)Nc1ccc2cn[nH]c2c1`, the outcome with Escherichia coli [1], with Staphylococcus aureus and in the assay on Escherichia coli [2] was inactive. In addition, the Activity in the assay with Escherichia coli [5] was less than 50%.

Consider `O=S(=O)(O)c1cc(/N=[N+](\[O-])c2cc(S(=O)(=O)O)c3ccccc3c2)cc2ccccc12`, for which the outcome in the assay on Escherichia coli [1], in the assay on Staphylococcus aureus and in the assay on Escherichia coli [2] was inactive. For the same compound, the Activity in the assay on Escherichia coli [5] was less than 50%.

For the compound `O=S(=O)(O)c1ccc2c(/N=N/c3c(O)ccc4ccccc34)cccc2c1`, the outcome with Escherichia coli [1], in the assay with Staphylococcus aureus and in the assay on Escherichia coli [2] was inactive. The Activity in the assay with Escherichia coli [5] is less than 50%.

`O=C1/C(=N/CCc2cc(Br)c(O)c(Br)c2)C=C(O)c2cccnc21`: the outcome in the assay on Escherichia coli [1], with Staphylococcus aureus and in the assay with Escherichia coli [2] was inactive. Further, the Activity in the assay on Escherichia coli [5] was less than 50%.

For `CCOc1ccc2c(c1)C=C/C(=C/C=C1\C=C(C)c3cccnc3C1=O)N2C`, the result in the assay with Escherichia coli [1], with Staphylococcus aureus and with Escherichia coli [2] was inactive. The Activity in the assay with Escherichia coli [5] was less than 50%.

`O=C(O)c1c(Br)c(Br)c(Br)c(Br)c1C1c2ccc(O)cc2Oc2cc(O)ccc21`: the result in the assay on Escherichia coli [1], with Staphylococcus aureus and with Escherichia coli [2] was inactive. In assay [3], the IC50 was 10 µM. The Activity in the assay with Escherichia coli [4] is less than 50%.

As for `Oc1nc(S)nc(SCc2c(Cl)c(Cl)c(Cl)c(Cl)c2Cl)n1`, the MIC in the assay on Staphylococcus aureus came to 128 µg/mL (≈ 302 µM). Also, in the assay with Escherichia coli [2], the result was Active. Half-maximal inhibition in assay [6] (IC50) required 63 µM. The Activity in the assay with Escherichia coli [5] is less than 50%.

Consider `CCCCCCCCCCCCN(C)C`, for which the result in the assay with Escherichia coli [1], with Staphylococcus aureus and with Escherichia coli [2] was inactive. In addition, the Activity with Escherichia coli [5] is less than 50%.
